From ChEMBL document CHEMBL5512611, “Discovery of matrix metalloproteinase inhibitors as anti-skin photoaging agents” (Eur J Med Chem, 2024) come the findings set out here.

Molecules are shown by their SMILES.

Series [1] can be described thus: Cytotoxicity against human CCD-986Sk cells assessed as cell viability by MTT assay relative to control. It is filed as toxicity, cell-based. The note with it: read-out: Activity. Background: Tetrazolium dyes change colour on reduction, which living cells bring about.
Series [2] has as its target T1, 72 kDa type IV collagenase (Homo sapiens, UniProt P08253). Description: Inhibition of human MMP-2 using 7-methoxycoumarin-4-yl)acetyl-Pro-Leu-Gly-Leu-(N3-(2,4-dinitrophenyl)-L-2,3-diaminopropionyl)-Ala-Arg-NH2 as substrate preincubated for 5 mins followed by enzyme addition and measured after 15 mins by fluorescence based analysis.
The target in series [3] is Matrix metalloproteinase-9 (Homo sapiens, UniProt P14780). Description: Inhibition of human MMP-9 using 7-methoxycoumarin-4-yl)acetyl-Pro-Leu-Gly-Leu-(N3-(2,4-dinitrophenyl)-L-2,3-diaminopropionyl)-Ala-Arg-NH2 as substrate preincubated for 5 mins followed by enzyme addition and measured after 15 mins by fluorescence based analysis.
Chain of Matrix metalloproteinase-9 (P14780 whole entry): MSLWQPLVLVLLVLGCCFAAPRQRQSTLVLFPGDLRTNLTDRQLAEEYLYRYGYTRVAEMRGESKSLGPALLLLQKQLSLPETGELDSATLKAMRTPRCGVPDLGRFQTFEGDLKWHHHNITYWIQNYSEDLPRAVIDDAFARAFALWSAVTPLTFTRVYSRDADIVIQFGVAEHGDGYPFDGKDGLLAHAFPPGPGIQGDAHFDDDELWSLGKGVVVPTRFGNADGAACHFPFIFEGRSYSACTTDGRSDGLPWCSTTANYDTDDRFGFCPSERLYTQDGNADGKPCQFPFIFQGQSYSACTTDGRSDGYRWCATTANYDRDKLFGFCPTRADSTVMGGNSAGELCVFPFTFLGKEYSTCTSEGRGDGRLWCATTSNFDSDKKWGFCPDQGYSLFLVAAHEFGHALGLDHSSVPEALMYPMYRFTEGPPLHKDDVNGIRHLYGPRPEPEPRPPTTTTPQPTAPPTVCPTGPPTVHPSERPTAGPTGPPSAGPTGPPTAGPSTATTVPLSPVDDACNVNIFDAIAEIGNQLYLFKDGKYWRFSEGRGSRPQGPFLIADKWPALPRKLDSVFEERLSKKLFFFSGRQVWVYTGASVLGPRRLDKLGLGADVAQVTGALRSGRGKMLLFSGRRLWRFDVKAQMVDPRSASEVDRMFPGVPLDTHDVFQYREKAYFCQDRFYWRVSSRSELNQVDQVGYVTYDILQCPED
Series [4] deals with Macrophage metalloelastase (Homo sapiens, UniProt P39900). Description: Inhibition of human MMP-12 using 7-methoxycoumarin-4-yl)acetyl-Pro-Leu-Gly-Leu-(N3-(2,4-dinitrophenyl)-L-2,3-diaminopropionyl)-Ala-Arg-NH2 as substrate preincubated for 5 mins followed by enzyme addition and measured after 15 mins by fluorescence based analysis.
Chain of Macrophage metalloelastase (P39900 whole entry): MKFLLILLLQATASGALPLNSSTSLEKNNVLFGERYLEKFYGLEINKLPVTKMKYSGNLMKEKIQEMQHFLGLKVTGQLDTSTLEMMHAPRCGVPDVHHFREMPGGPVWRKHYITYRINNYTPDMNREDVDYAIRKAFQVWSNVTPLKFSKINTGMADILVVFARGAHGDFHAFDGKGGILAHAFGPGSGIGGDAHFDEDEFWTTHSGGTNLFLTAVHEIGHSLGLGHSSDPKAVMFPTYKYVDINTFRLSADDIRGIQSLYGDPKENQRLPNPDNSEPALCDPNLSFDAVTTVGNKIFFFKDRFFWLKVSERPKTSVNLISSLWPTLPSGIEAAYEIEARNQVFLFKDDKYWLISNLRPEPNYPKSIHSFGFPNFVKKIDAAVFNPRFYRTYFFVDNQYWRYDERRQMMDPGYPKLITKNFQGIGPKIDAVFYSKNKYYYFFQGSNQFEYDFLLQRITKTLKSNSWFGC
A short description of series [5]: Inhibition of UV light -induced MMP-1 expression in HDF-N cells at 1 ppm by ELISA relative to control. The class given is functional. The conditions noted are these: Homo sapiens.
The nature of series [6]: Inhibition of UV light-induced MMP-1 expression in HDF-N cells at 5 ppm by ELISA relative to control. It is filed as functional. The note with it: Homo sapiens.
A short description of series [7]: Inhibition of UV light-induced MMP-1 expression in HDF-N cells at 10 ppm by ELISA relative to control. It is filed as functional. The note with it: Homo sapiens. For orientation: ELISA stands for enzyme-linked immunosorbent assay.
The next series deals with T2, Interstitial collagenase (Homo sapiens, UniProt P03956).
T2 sequence (P03956 whole entry): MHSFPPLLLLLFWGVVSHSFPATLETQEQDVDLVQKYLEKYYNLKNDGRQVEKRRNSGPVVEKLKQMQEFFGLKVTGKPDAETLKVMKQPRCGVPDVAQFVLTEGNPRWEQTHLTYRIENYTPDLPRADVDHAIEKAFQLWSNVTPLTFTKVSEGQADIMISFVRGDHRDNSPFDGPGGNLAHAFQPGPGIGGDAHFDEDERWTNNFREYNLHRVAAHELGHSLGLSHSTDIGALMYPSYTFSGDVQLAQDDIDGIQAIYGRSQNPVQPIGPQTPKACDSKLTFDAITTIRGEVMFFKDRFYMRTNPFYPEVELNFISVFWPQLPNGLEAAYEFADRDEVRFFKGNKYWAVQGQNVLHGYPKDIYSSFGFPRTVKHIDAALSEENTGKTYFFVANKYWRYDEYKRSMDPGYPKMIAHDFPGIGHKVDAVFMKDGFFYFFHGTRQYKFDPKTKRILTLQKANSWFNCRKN
Description: Inhibition of MMP-1 (unknown origin).

In a further series the target is Stromelysin-2 (Homo sapiens, UniProt P09238). Description: Inhibition of MMP-10 (unknown origin) using 5-FAM-Pro-Leu-OH as substrate by fluorimetric assay.
Chain of Stromelysin-2 (P09238 whole entry): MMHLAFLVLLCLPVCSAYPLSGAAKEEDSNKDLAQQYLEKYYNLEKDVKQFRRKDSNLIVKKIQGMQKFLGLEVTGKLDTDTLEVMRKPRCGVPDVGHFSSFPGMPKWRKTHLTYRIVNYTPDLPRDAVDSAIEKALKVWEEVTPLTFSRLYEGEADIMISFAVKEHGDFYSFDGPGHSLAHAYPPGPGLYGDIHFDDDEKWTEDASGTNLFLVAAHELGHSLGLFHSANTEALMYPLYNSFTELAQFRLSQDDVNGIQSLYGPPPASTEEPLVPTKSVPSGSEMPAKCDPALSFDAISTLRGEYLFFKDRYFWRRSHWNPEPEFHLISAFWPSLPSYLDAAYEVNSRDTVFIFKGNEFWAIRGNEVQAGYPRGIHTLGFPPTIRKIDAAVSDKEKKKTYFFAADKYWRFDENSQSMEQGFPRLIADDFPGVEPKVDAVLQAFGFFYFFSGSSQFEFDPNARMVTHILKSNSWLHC
Series [8] in a line: Inhibition of UVB-induced MMP-9 expression in SKH-1 hairless mouse skin at 1 nM administered topically for 1 hr followed by UVB irradiation for 15 weeks by densitometry based gelatin zymography analysis relative to control. It is filed as functional. The conditions noted are these: SKH-1, Skin of body, light or radiation study, topical, time 2521 hrs.
Series [9] can be described thus: Inhibition of UVB-induced MMP-9 expression in SKH-1 hairless mouse skin at 5 nM administered topically for 1 hr followed by UVB irradiation for 15 weeks by densitometry based gelatin zymography analysis relative to control. The class given is functional. The note with it: SKH-1, Skin of body, light or radiation study, topical, time 2521 hrs.
The target in series [10] is T1, 72 kDa type IV collagenase. Description: Inhibition of recombinant MMP-2 (unknown origin).
Series [11] is described as follows: Inhibition of MMP-1 mRNA expression in UVB-irradiated human Hs68 cells at 10 uM relative to control. It is filed as functional. The conditions noted are these: Hs68, light or radiation study.
Series [12] is described as follows: Inhibition of MMP-2 mRNA expression in UVB-irradiated human Hs68 cells at 10 uM relative to control. It is filed as functional. The conditions noted are these: Hs68, light or radiation study.
A short description of series [13]: Downregulation of UVB irradiation-induced MMP-1 expression in HDF cells at 20 uM measured after 24 hrs by Western blot analysis relative to control. It is filed as functional, Homo sapiens, NHDF. (In western blotting, separated proteins are transferred to a membrane and probed.)
A short description of series [14]: Downregulation of UVB irradiation-induced MMP-3 expression in HDF cells at 20 uM measured after 24 hrs by Western blot analysis relative to control. The class given is functional, Homo sapiens, NHDF.

T1 sequence (P08253 whole entry): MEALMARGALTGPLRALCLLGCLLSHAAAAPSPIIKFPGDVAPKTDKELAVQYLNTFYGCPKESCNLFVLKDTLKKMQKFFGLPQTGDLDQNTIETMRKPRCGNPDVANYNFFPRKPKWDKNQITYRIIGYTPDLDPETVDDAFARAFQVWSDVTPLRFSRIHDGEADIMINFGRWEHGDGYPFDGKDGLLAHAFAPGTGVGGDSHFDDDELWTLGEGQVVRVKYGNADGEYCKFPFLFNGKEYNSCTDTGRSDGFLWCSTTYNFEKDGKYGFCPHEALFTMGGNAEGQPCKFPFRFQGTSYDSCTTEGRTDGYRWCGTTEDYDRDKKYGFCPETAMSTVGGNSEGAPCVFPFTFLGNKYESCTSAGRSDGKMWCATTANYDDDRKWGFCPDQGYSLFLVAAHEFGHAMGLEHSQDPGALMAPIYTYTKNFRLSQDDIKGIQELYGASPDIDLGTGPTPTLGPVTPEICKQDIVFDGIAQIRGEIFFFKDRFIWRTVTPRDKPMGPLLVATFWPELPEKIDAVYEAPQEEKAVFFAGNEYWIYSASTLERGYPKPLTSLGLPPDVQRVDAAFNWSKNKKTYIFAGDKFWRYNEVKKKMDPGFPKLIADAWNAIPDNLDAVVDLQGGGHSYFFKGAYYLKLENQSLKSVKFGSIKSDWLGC

On to `COc1cc(/C=C/C(=O)O)ccc1O` [FERULATE], for which the viability in [1] was above 80%.

The term IC50 denotes the concentration that inhibits the measured activity by half. Regarding `C[C@H](C[C@H](CO)NC(=O)c1ccc(Oc2ccccc2)cc1)C(=O)NO`, the IC50 in series [2] was found to be 0.65 nM; in [3], 0.8 nM; in series [4] it was 3.5 nM.

On to `C[C@H](C[C@H](COC(=O)CCC(=O)O)NC(=O)c1ccc(Oc2ccccc2)cc1)C(=O)NO`, for which the results for the IC50 in series [2], in series [3] and in [4] were 1.1 nM, 2.8 nM and 2.6 nM, respectively.

In general, inhibition refers to the share of the control response that was lost under treatment. As to `O=C1c2cc(O)cc(O)c2CN1c1ccc(O)cc1`, 1 µg/mL produced 33.9% inhibition in [5]. Besides, the inhibition at 5 µg/mL in series [6] stood at 27.6%. In addition, the inhibition at 10 µg/mL in [7] worked out at 27.5%.

Regarding `O=C(O[C@@H]1Cc2c(O)cc(O)cc2O[C@@H]1c1cc(O)c(O)c(O)c1)c1cc(O)c(O)c(O)c1` [EPIGALOCATECHIN GALLATE], at Interstitial collagenase, the IC50 was determined as 7900 nM.

`COc1ccc(/C=N/Nc2nc(C)cc(=O)[nH]2)cc1` had an IC50 against Stromelysin-2 of 53 nM.

In general, inhibition in vivo refers to the relative decrease from the control value, in per cent. In turn, `O=c1c(O)c(-c2cc(O)c(O)c(O)c2)oc2cc(O)cc(O)c12` [MYRICETIN] displayed an inhibition in vivo at 0.001 µM in series [8] of 55%. Also, testing at 0.005 µM in [9] gave an inhibition in vivo of 80%.

Regarding `COc1ccc(S(=O)(=O)N(CC(=O)NO)CC(C)C)cc1`, the IC50 in [10] was 70 nM.

Take `COc1cc2ccnc3c2c(c1OC)NC=C3` [AAPTAMINE]: the results for the inhibition at 10 µM in series [11] and in series [12] were 53.6% and 87.4%, respectively.

`O=C1OC[C@H]2OC(O)[C@@H]3OC(=O)c4cc(O)c(O)c(O)c4-c4c(cc(O)c(O)c4O)C(=O)O[C@@H]3[C@@H]2OC(=O)c2cc(O)c(O)c(O)c2-c2c1cc(O)c(O)c2O` (some centres not stated): on Interstitial collagenase, the IC50 turned out to be 9750 nM.

In turn, `CC(=O)N1C2NC(C)=CC(=O)N2C(c2ccc(Br)cc2)N1C(C)=O` (configuration not stated) came in with an IC50 on Stromelysin-2 of 24 nM.

In the case of `CC(=O)N1c2nc(=O)cc(C)n2C(c2ccc(Br)cc2)N1C(C)=O` (configuration not stated), the IC50 against Stromelysin-2 amounted to 1630 nM.

Take `Oc1ccc2c(c1)OC[C@]1(O)Cc3cc(O)c(O)cc3[C@H]21` [BRAZILIN]: the Activity in [13] and in series [14] was 50% each time.
